Experimental data from US20160045497A1, “COMPLEX PREPARATION INCLUDING VALSARTAN AND ROSUVASTATIN CALCIUM AND MANUFACTURING METHOD THEREFOR” (LG LIFE SCIENCES LTD., priority 2013, published 2016).

What was measured:
[1] = test system: patients with hypertension and hyperlipidemia; assay: Clinical test of combined vs single administration: change of LDL-C after 8 weeks; assay type: in vivo, human; details: valsartan 160 mg and/or rosuvastatin 20 mg
Procedure: (§1) The following tests were performed for patients with hypertension and hyperlipidemia to evaluate the efficacy and safety of the combined administration of 160 mg of valsartan and 20 mg of rosuvastatin in comparison with single administration of each of them.
(§2) A screening inspection was conducted for the subjects, who were 20- to 80-year-old patients suffering from hypertension and hyperlipidemia, to ascertain whether they met the selection/exclusion criteria, and administration of the drugs for treating hypertension and hyperlipidemia, which the subjects had taken, was stopped. All the patients who passed the screening inspection were subjected to Therapeutic Lifestyle Change (TLC) for 4 to 6 weeks, and their blood pressure and fasting serum lipid level were measured finally in the measurement 2 (0 week) visit. If the measured values were recognized as suitable to the following criteria, the patient was randomly assigned to one group of the four (4) treatment groups. […]
(§3) According to random assignment, each subject was assigned with the same probability to one of a total of four groups consisting of one combined administration group (group 1), two single administration groups (groups 2 and 3) and one placebo group (group 4) as shown in the following table. […] The visit window was±4 days at each visit, and the timing of visit was determined with the standard of 0 week. […]

[2] = test system: patients with hypertension and hyperlipidemia; assay: Clinical test of combined vs single administration: change of sitDBP after 8 weeks; assay type: in vivo, human; details: valsartan 160 mg and/or rosuvastatin 20 mg
Procedure: as §1, §2, §3

For `CC(C)c1nc(N(C)S(C)(=O)=O)nc(-c2ccc(F)cc2)c1/C=C/[C@@H](O)C[C@@H](O)CC(=O)O` [Example R20, rosuvastatin], the “average rate of change of LDL-C from the baseline (Least Square Mean)” value [1] was −47.27% and the “average amount of change of sitDBP from the baseline (Least Square Mean)” value [2] was −3.64 mmHg.

With `CCCCC(=O)N(Cc1ccc(-c2ccccc2-c2nnn[nH]2)cc1)[C@H](C(=O)O)C(C)C` [Example V160, valsartan] the “average rate of change of LDL-C from the baseline (Least Square Mean)” value [1] was −4.52% and the “average amount of change of sitDBP from the baseline (Least Square Mean)” value [2] was −7.26 mmHg.
